Measurements reported in PubChem BioAssay (NCI).
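Five compound concentrations were applied to cells in 96-well plates for 48 hours; endpoints were derived by simple linear interpolation of the resulting dose-response curve. TGI marks complete inhibition of growth.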

Assays:
Assay in all cases: inhibition of tumour cell growth, NCI panel, 48 h
RPMI-8226 leukemia = system: RPMI-8226 leukemia
SK-OV-3 ovarian = system: SK-OV-3 ovarian
MOLT-4 leukemia = system: MOLT-4 leukemia
HCT-116 colon = system: HCT-116 colon
A549 NSCLC = system: A549 NSCLC
MDA-MB-231 breast = system: MDA-MB-231 breast
ACHN renal = system: ACHN renal
UO-31 renal = system: UO-31 renal
NCI-H226 lung = system: NCI-H226 lung
NCI-H522 lung = system: NCI-H522 lung
HOP-62 NSCLC = system: HOP-62 NSCLC
MALME-3M melanoma = system: MALME-3M melanoma
TK-10 renal = system: TK-10 renal
LOX IMVI melanoma = system: LOX IMVI melanoma
COLO 205 colon = system: COLO 205 colon
M14 melanoma = system: M14 melanoma
KM12 colon = system: KM12 colon
SK-MEL-28 melanoma = system: SK-MEL-28 melanoma
HT29 colon = system: HT29 colon
MDA-N = system: MDA-N
MCF7 breast = system: MCF7 breast
SW-620 colon = system: SW-620 colon
BT-549 breast = system: BT-549 breast
SK-MEL-5 melanoma = system: SK-MEL-5 melanoma
SF-539 CNS = system: SF-539 CNS
DU-145 prostate = system: DU-145 prostate
SN12C renal = system: SN12C renal
HL-60(TB) leukemia = system: HL-60(TB) leukemia
HCT-15 colon = system: HCT-15 colon
CCRF-CEM leukemia = system: CCRF-CEM leukemia
OVCAR-4 ovarian = system: OVCAR-4 ovarian
IGROV1 ovarian = system: IGROV1 ovarian
A498 renal = system: A498 renal
SR leukemia = system: SR leukemia
NCI/ADR-RES ovarian = system: NCI/ADR-RES ovarian
OVCAR-8 ovarian = system: OVCAR-8 ovarian
U251 CNS = system: U251 CNS
786-0 renal = system: 786-0 renal
EKVX NSCLC = system: EKVX NSCLC
MDA-MB-435 = system: MDA-MB-435
NCI-H23 lung = system: NCI-H23 lung
OVCAR-3 ovarian = system: OVCAR-3 ovarian
SK-MEL-2 melanoma = system: SK-MEL-2 melanoma
NCI-H460 lung = system: NCI-H460 lung
HS 578T breast = system: HS 578T breast
UACC-257 melanoma = system: UACC-257 melanoma
SF-295 CNS = system: SF-295 CNS
PC-3 prostate = system: PC-3 prostate
K-562 leukemia = system: K-562 leukemia
OVCAR-5 ovarian = system: OVCAR-5 ovarian
SNB-19 CNS = system: SNB-19 CNS
T-47D breast = system: T-47D breast
SNB-75 CNS = system: SNB-75 CNS
HCC-2998 colon = system: HCC-2998 colon
SF-268 CNS = system: SF-268 CNS
RXF 393 renal = system: RXF 393 renal
HOP-92 NSCLC = system: HOP-92 NSCLC

Compound `C[C@H](CC[C@@H](O)C(C)(C)O)[C@H]1CC[C@@]2(C)[C@@H]3CC=C4[C@@H](CC[C@H](O)C4(C)C)[C@]3(C)C(=O)C[C@]12C` has a TGI (RPMI-8226 leukemia) of 29.8 µM, a TGI (SK-OV-3 ovarian) greater than 50 µM and a TGI (MOLT-4 leukemia) greater than 50 µM. The TGI (HCT-116 colon) was greater than 50 µM, the TGI (A549 NSCLC) was greater than 50 µM and the TGI (MDA-MB-231 breast) was greater than 50 µM. It also gave a TGI (ACHN renal) greater than 50 µM, a TGI (UO-31 renal) greater than 50 µM and a TGI (NCI-H226 lung) greater than 50 µM. For the same compound, the TGI (NCI-H522 lung) was greater than 50 µM, the TGI (HOP-62 NSCLC) was greater than 50 µM and the TGI (MALME-3M melanoma) was greater than 50 µM. The TGI (TK-10 renal) was greater than 50 µM, the TGI (LOX IMVI melanoma) was greater than 50 µM and the TGI (COLO 205 colon) was 31.8 µM. The TGI (M14 melanoma) was greater than 50 µM, the TGI (KM12 colon) was 49.2 µM and the TGI (SK-MEL-28 melanoma) was greater than 50 µM. It also gave a TGI (HT29 colon) greater than 50 µM, a TGI (MDA-N) greater than 50 µM and a TGI (MCF7 breast) greater than 50 µM. For the same compound, the TGI (SW-620 colon) was greater than 50 µM, the TGI (BT-549 breast) was greater than 50 µM and the TGI (SK-MEL-5 melanoma) was greater than 50 µM. For the same compound, the TGI (SF-539 CNS) was greater than 50 µM, the TGI (DU-145 prostate) was greater than 50 µM and the TGI (SN12C renal) was greater than 50 µM. For the same compound, the TGI (HL-60(TB) leukemia) was greater than 50 µM, the TGI (HCT-15 colon) was greater than 50 µM and the TGI (CCRF-CEM leukemia) was greater than 50 µM. For the same compound, the TGI (OVCAR-4 ovarian) was greater than 50 µM, the TGI (IGROV1 ovarian) was greater than 50 µM and the TGI (A498 renal) was greater than 50 µM. The TGI (SR leukemia) was greater than 50 µM, the TGI (NCI/ADR-RES ovarian) was greater than 50 µM and the TGI (OVCAR-8 ovarian) was greater than 50 µM. For the same compound, the TGI (U251 CNS) was greater than 50 µM, the TGI (786-0 renal) was greater than 50 µM and the TGI (EKVX NSCLC) was greater than 50 µM. For the same compound, the TGI (MDA-MB-435) was greater than 50 µM, the TGI (NCI-H23 lung) was greater than 50 µM and the TGI (OVCAR-3 ovarian) was greater than 50 µM. For the same compound, the TGI (SK-MEL-2 melanoma) was greater than 50 µM, the TGI (NCI-H460 lung) was greater than 50 µM and the TGI (HS 578T breast) was greater than 50 µM. The TGI (UACC-257 melanoma) was greater than 50 µM, the TGI (SF-295 CNS) was greater than 50 µM and the TGI (PC-3 prostate) was 45.4 µM. The TGI (K-562 leukemia) was greater than 50 µM, the TGI (OVCAR-5 ovarian) was greater than 50 µM and the TGI (SNB-19 CNS) was greater than 50 µM.

`CCOC(=O)C(NC(=O)CC(C)C)(Nc1ccc(C(F)(F)F)cc1)C(F)(F)F` (centres undefined) gave a TGI (RPMI-8226 leukemia) of 93.8 µM, a TGI (T-47D breast) of 81.8 µM and a TGI (SK-OV-3 ovarian) greater than 100 µM. The TGI (MOLT-4 leukemia) was greater than 100 µM, the TGI (HCT-116 colon) was greater than 100 µM and the TGI (A549 NSCLC) was greater than 100 µM. For the same compound, the TGI (SNB-75 CNS) was 60.9 µM, the TGI (ACHN renal) was 91 µM and the TGI (UO-31 renal) was greater than 100 µM. It also gave a TGI (NCI-H226 lung) greater than 100 µM, a TGI (NCI-H522 lung) greater than 100 µM and a TGI (HOP-62 NSCLC) greater than 100 µM. It also gave a TGI (MALME-3M melanoma) greater than 100 µM, a TGI (TK-10 renal) greater than 100 µM and a TGI (LOX IMVI melanoma) greater than 100 µM. The TGI (M14 melanoma) was greater than 100 µM, the TGI (KM12 colon) was 55.6 µM and the TGI (HCC-2998 colon) was greater than 100 µM. It also gave a TGI (SK-MEL-28 melanoma) greater than 100 µM, a TGI (HT29 colon) greater than 100 µM and a TGI (MDA-N) greater than 100 µM. It also gave a TGI (SF-268 CNS) greater than 100 µM, a TGI (MCF7 breast) greater than 100 µM and a TGI (SW-620 colon) greater than 100 µM. For the same compound, the TGI (SK-MEL-5 melanoma) was greater than 100 µM, the TGI (SF-539 CNS) was greater than 100 µM and the TGI (DU-145 prostate) was greater than 100 µM. For the same compound, the TGI (SN12C renal) was greater than 100 µM, the TGI (HL-60(TB) leukemia) was 59.9 µM and the TGI (HCT-15 colon) was greater than 100 µM. The TGI (CCRF-CEM leukemia) was greater than 100 µM, the TGI (OVCAR-4 ovarian) was greater than 100 µM and the TGI (IGROV1 ovarian) was greater than 100 µM. For the same compound, the TGI (SR leukemia) was greater than 100 µM, the TGI (NCI/ADR-RES ovarian) was greater than 100 µM and the TGI (OVCAR-8 ovarian) was greater than 100 µM. For the same compound, the TGI (U251 CNS) was greater than 100 µM, the TGI (786-0 renal) was greater than 100 µM and the TGI (EKVX NSCLC) was greater than 100 µM. For the same compound, the TGI (MDA-MB-435) was greater than 100 µM, the TGI (RXF 393 renal) was greater than 100 µM and the TGI (NCI-H23 lung) was greater than 100 µM. It also gave a TGI (OVCAR-3 ovarian) greater than 100 µM, a TGI (HOP-92 NSCLC) greater than 100 µM and a TGI (SK-MEL-2 melanoma) greater than 100 µM. The TGI (NCI-H460 lung) was greater than 100 µM, the TGI (HS 578T breast) was greater than 100 µM and the TGI (UACC-257 melanoma) was greater than 100 µM. For the same compound, the TGI (SF-295 CNS) was greater than 100 µM, the TGI (PC-3 prostate) was greater than 100 µM and the TGI (K-562 leukemia) was greater than 100 µM. The TGI (OVCAR-5 ovarian) was greater than 100 µM and the TGI (SNB-19 CNS) was greater than 100 µM.
